Converted amounts (≈) assume the structure as drawn.
System: Human immunodeficiency virus 1
Test: Antiviral activity against HIV1 NL4.3 in human MT4 cells
Type: functional, organism-based
Conditions: Human immunodeficiency virus 1, MT4

- IC50: 1.5 ng/mL (≈ 2.98 nM)
Structure (SMILES): c1cc(CN2CCCNCCNCCCNCC2)ccc1CN1CCCNCCNCCCNCC1 [PLERIXAFOR]

Source: ChEMBL document CHEMBL1150800, “Multiple-dose escalation study of the safety, pharmacokinetics, and biologic activity of oral AMD070, a selective CXCR4 receptor inhibitor, in human subjects” (Antimicrob Agents Chemother, 2007)
